From patent publication US12673022B2, “Drug delivery system using solution” (Kyoto University, priority 2018, dated 2026) come the findings set out here.

This test has as its system EGFP reporter cells (C2C12 cells). In words: EGFP-SSA assay: uptake of Cas9 protein/gRNA complex into cells (EGFP positive rate). Type of test: cell-based, mouse. Conditions: Example 1; compound 250.0 mM; reaction solution 1 (550 mM sodium chloride, 1 mM HEPES, Cas9 protein/gRNA), 30 minutes.
Text: EGFP-SSA assay: an abbreviation of EGFP-single strand annealing assay. The reporter cassette shown in FIG. 1 is inserted in EGFP reporter cells. In the middle of the EGFP sequence of the cassette, MmDMD-Ex51 sequence is inserted. Since the presence of MmDMD-Ex51 sequence, by which EGFP ORF is divided, EGFP protein is not usually translated. However, when target sequence of MmDMD-Ex51 is cleaved by Cas9 protein/gRNA complex, the upstream region (EG part) and the downstream region (FP part) of EGFP ORF are annealed via a homology area into a single strand, with the result that a full-length EGFP ORF emerges to produce EGFP protein. Based on this principle, the ratio of the number of cells producing EGFP is checked by the EGFP-SSA assay. In this manner, the amount of Cas9 protein/gRNA complex delivered to cells can be predicted.
(§1) Cas9 protein (0.4 μg), tracrRNA (34.18 ng), MmDmd Ex51 crRNA (29.48 ng), a 1 M HEPES buffer (0.05 μL) and a 5 M aqueous sodium chloride solution (5.5 μL) were mixed and diluted with UltraPure DNase/RNase-Free Distilled Water up to a liquid volume of 37.5 μL so as to obtain final concentrations: 8 ng/μL Cas9 protein, 0.68 ng/μL tracrRNA, 0.59 ng/μL MmDmd Ex51 crRNA, 1 mM HEPES, 550 mM sodium chloride, and 250 mM compound. To this solution, a 1000 mM compound solution (12.5 μL) was added and the solution mixture was incubated at normal temperature for 15 minutes.
as §1, with “buffer (2.5” for “buffer (0.05”, “solution (4.85” for “solution (5.5”, “crRNA, 50” for “crRNA, 1”, “HEPES, 485” for “HEPES, 550”, “minutes. Note that, in the cases where the final concentrations of the compound are 0.69 mM, 25 mM, 100 mM, 125 mM, 160 mM, 200 mM and 500 mM, the compound stock solution was diluted with UltraPure DNase/RNase-Free Distilled Water up to concentrations of 2.76 mM, 100 mM, 400 mM, 500 mM, 640 mM, 800 mM and 2000 mM, respectively, and then, added. […]” for “minutes.”
Cas9 protein (2.0 μg), tracrRNA (170.9 ng), MmDmd Ex51 crRNA (147.4 ng), a 1 M HEPES buffer (12.5 μL), a 5 M aqueous sodium chloride solution (18.35 μL) and a 1 M aqueous GABA solution (62.5 μL) were mixed, diluted with UltraPure DNase/RNase-Free Distilled Water up to a liquid volume of 250 μL so as to obtain final concentrations: 8 ng/μL Cas9 protein, 0.68 ng/μL tracrRNA, 0.59 ng/μL MmDmd Ex51 crRNA, 50 mM HEPES, 250 mM GABA and 367 mM sodium chloride, and incubated at normal temperature for 15 minutes. Note that the addition amount of the 5 M aqueous sodium chloride solution was changed to 24.25 μL in the case of 485 mM sodium chloride and the addition amount was changed to 27.5 μL in the case of 550 mM sodium chloride, respectively.

For `NC(=O)N[C@@H](CC(=O)O)C(=O)O` [N-Carbamyl-L-aspartic acid], the “Compound activity: EGFP positive rate (%)” value is listed as 8.53%.
